This experiment has as its system N48K Clarin-1. Nature of the experiment: Restoration of expression of N48K Clarin-1 (24 hour incubation), Example 20. The note with it: HEK293-Clarin-1 N48K-HA D9 cell line; 24 hr incubation with compound; HA-Clarin-1 staining per cell. The class given is cell-based. The method, then: Assay Method Showing Activity of Compounds of the Invention that Restore Expression of N48K Clarin-1 (24 Hour Incubation)
Clarin-1 is the protein encoded by the gene mutated in Usher III Syndrome (Adato et al., 2002). The most prevalent mutation in Clarin-1 in North America is N48K, which is reported to cause loss of glycosylation and a trafficking defect (Tian et al., 2009). […] Thus it is believed that restoring the trafficking of N48K Clarin-1 to the cell surface provides an avenue of intervention for Usher III Syndrome. […]
The HA-tagged N48K Clarin-1 was detected with an antibody against the HA tag (HA.11 Clone 16B12 Monoclonal antibody, Covance #MMS-101P) at a dilution of 1:1000 in PBS containing Triton X-100. […] The imaging of the stained cells was performed on an InCell 1000 High Content Imager (GE Healthcare), reading out the Cy3 channel for N48K Clarin-1 and the DAPI channel for nuclei. The images were analyzed and quantitated using a specific algorithm. This algorithm measured the HA-Clarin-1 staining for each cell based on the additional nuclear segmentation of the DAPI signal (FIG. 1). This algorithm measured the intensity per cell, and thus it is less sensitive for variation in cell number. Per well, approximately 2,000 cells were measured to achieve an average density per cell measurement.

Molecules are shown by their SMILES.

With `O=C(Cn1nc(-c2ccccc2)c2c(Cl)c(-c3cccc(F)c3)nnc21)N1CCCC1` [Compound 11, 2-[4-chloro-5-(3-fluorophenyl)-3-phenyl-pyrazolo[3,4-c]pyridazin-1-yl]-1-pyrrolidin-1-yl-ethanone], the IC50 is under 2000 nM.

By IC50 is commonly meant the concentration that inhibits the measured activity by half.

(Values after US8765762B2, “Pyrazolopyridazines and methods for treating retinal-degerative diseases and hearing loss associated with usher syndrome” (Usher III Initiative, priority 2012, dated 2014).)
